According to patent publication US20100150863A1, “HYDROXY METHYL PHENYL PYRAZOLYL UREA COMPOUND USEFUL IN TREATMENT OF CANCER” (BAYER PHARMACEUTICALS CORPORATION, priority 2006, published 2010):

What was measured:
[1] = tested on: Imatinib-resistant Bcr-Abl mutations; conditions: cited from earlier work
[2] = tested on: Bcr-Abl kinase; conditions: greater potency than Imatinib; cited from earlier work
[3] = tested on: Bcr-Abl E255K mutant; conditions: cited from earlier work
[4] = tested on: early phase CML; conditions: patients with early phase CML; cited from earlier work
[5] = tested on: BaF3-Abl(Y253F); experiment: Cell proliferation assay, BaF3-Abl(Y253F); format: cell-based; conditions: Imatinib-resistant mutation
From the text: [Worded in the source for another cell line; this cell line is reported under the same test.] (§1) The adherent tumor cell proliferation assay used to test the compounds of the present invention involves a readout called Cell Titre-Glo developed by Promega (Cunningham, B A “A Growing Issue: Cell Proliferation Assays. Modern kits ease quantification of cell growth” The Scientist 2001, 15(13), 26; and Crouch, S P et al., “The use of ATP bioluminescence as a measure of cell proliferation and cytotoxicity” Journal of Immunological Methods 1993, 160, 81-88).
(§2) H460 cells (lung carcinoma, purchased from ATCC) were plated in 96-well plates at 3000 cells/well in complete media with 10% Fetal Calf Serum and incubated 24 hours at 37° C. Twenty-four hours after plating, test compounds were added over a final concentration range of 10 nM to 20 μM in serial dilutions at a final DMSO concentration of 0.2%. Cells were incubated for 72 hours at 37° C. in complete growth media after addition of the test compound. On day 4, using a Promega Cell Titer Glo Luminescent® assay kit, the cells were lysed and 100 microliters of substrate/buffer mixture was added to each well, mixed and incubated at room temperature for 8 minutes. The samples were read on a luminometer to measure the amount of ATP present in the cell lysates from each well, which corresponds to the number of viable cells in that well. Values read at 24-hour incubation were subtracted as Day 0. […]

[6] = tested on: BaF3-Abl(T315I); experiment: Cell proliferation assay, BaF3-Abl(T315I); format: cell-based; conditions: Imatinib-resistant mutation
From the text: [Worded in the source for another cell line; this cell line is reported under the same test.] as §1, §2

[7] = tested on: BaF3-Abl(M351T); experiment: Cell proliferation assay, BaF3-Abl(M351T); format: cell-based; conditions: Imatinib-resistant mutation
From the text: [Worded in the source for another cell line; this cell line is reported under the same test.] as §1, §2

[8] = tested on: BaF3 parental cell line that does not express Bcr-Abl; experiment: Cell proliferation assay, BaF3 parental cell line; format: cell-based; conditions: Mus musculus
[9] = molecular target: T1, Bcr-Abl-wt kinase (Homo sapiens, UniProt P00519); experiment: Bcr-Abl wild type biochemical assay
T1 construct: fused on or other part: P11274 (Breakpoint cluster region protein)
T1 sequence (P00519 229-512 limits assumed): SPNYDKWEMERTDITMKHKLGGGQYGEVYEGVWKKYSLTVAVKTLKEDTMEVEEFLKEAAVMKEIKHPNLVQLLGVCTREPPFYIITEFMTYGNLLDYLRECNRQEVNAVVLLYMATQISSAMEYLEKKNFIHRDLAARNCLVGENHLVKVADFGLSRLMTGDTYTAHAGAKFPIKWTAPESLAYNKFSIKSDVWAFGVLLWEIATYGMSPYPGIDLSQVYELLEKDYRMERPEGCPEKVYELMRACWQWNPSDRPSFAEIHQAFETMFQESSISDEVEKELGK
Procedure: (§3) Bcr-Abl-wt or mutant Bcr-Abl-T315I kinase (0.17 nM) was incubated with Myelin Basic Protein (MBP, 2 μM) in assay buffer consisting of 50 mM Tris pH 7.5, 10 mM MgCl2, 1 mM EGTA, 2 mM DTT, 50 μM ATP and 0.4 μCi of ^33P-ATP. Test compounds were added at varying concentrations (final DMSO conc=1%) prior to the addition of ATP. The reaction mixture was incubated for 1 hour at 32° C. The reaction was then stopped by addition of phosphoric acid (final conc=1%) and samples were transferred to filtermats and read in a betaplate reader. Inhibition of MBP phosphorylation by Bcr-Abl-wt or Bcr-Abl-T315I was analyzed by using a 4 parameter fit and in-house software.

[10] = molecular target: T2, mutant Bcr-Abl-T315I kinase (Homo sapiens, UniProt P00519, T315I); experiment: Bcr-Abl mutant T315I biochemical assay
T2 construct: fused on or other part: P11274 (Breakpoint cluster region protein)
T2 sequence (P00519 242-493 T315I limits assumed): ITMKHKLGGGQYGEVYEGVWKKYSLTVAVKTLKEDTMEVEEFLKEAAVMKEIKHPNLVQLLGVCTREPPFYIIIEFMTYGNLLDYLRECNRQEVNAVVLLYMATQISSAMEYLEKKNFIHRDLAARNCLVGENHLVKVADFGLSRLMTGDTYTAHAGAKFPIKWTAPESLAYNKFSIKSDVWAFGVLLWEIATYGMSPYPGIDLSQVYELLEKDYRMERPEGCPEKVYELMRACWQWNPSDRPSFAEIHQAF
Procedure: as §3

[11] = tested on: BaF3-Abl(wt); experiment: Cell proliferation assay, BaF3-Abl(wt); format: cell-based
From the text: [Worded in the source for another cell line; this cell line is reported under the same test.] as §1, §2

[12] = tested on: K562; experiment: Cell proliferation assay, K562; format: cell-based; conditions: K562, human cell line expressing wild type Bcr-Abl; 72 hours, Cell Titer Glo
From the text: [Worded in the source for another cell line; this cell line is reported under the same test.] as §1, §2

[13] = tested on: BaF3-Abl(E255K); experiment: Cell proliferation assay, BaF3-Abl(E255K); format: cell-based; conditions: Imatinib-resistant mutation
From the text: [Worded in the source for another cell line; this cell line is reported under the same test.] as §1, §2

[14] = molecular target: T3, human recombinant c-Met (Homo sapiens, UniProt P08581); experiment: c-Met biochemical assay (ELISA)
T3 construct: C-terminal HIS-tagged intracellular kinase domain (956 to 1390 amino acids) human recombinant c-Met; His (C)
T3 sequence (P08581 956-1390): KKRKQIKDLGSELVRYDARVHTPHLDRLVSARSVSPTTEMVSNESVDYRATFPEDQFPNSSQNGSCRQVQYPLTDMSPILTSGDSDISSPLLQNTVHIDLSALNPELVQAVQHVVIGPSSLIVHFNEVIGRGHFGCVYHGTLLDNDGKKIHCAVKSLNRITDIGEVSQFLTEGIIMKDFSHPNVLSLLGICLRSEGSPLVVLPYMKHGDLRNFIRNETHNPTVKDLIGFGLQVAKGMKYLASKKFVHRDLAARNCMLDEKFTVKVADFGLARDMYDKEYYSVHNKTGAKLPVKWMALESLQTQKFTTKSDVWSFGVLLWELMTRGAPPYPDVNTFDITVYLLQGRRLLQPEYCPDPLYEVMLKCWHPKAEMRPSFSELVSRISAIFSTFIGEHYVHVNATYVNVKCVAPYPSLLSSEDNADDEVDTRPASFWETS
Procedure: An ELISA format was used for the c-Met biochemical assay. This assay uses the C-terminal HIS-tagged intracellular kinase domain (956 to 1390 amino acids) human recombinant c-Met in 96-well plates. 96-Well plates (Costar #9018) coated with poly(GluTyr) (Sigma # P0275) were used in this assay. The poly(GluTyr) substrate coated on the plate was phosphorylated in a 100 μL reaction volume with 2 nM c-Met protein in an assay buffer (50 mM HEPES pH7.0, 5 mM MnCl2, 0.1% BSA, 0.5 mM sodium orthovanadate, 0.1% β-mercaptoethanol), with 0.2 μM ATP (Sigma #A7699). […] After 25 minutes of incubation, the assay reaction was stopped with 25 μL of 100 mM EDTA. The plates were then washed, and wells were treated with 100 μL of 80 ng/mL anti-4G10-HRP antibody (Upstate #16-105) for 1 h. Plates were washed one final time, and were developed with 100 μL 3,3′,5,5′-TMB (Sigma #T8665), and quenched with 100 μL 1M HCl. Plates were read on a Victor 2 plate reader (Perkin Elmer) and IC50 analysis and calculation were performed using in-house software.

Cc1cn(-c2cc(NC(=O)c3ccc(C)c(Nc4nccc(-c5cccnc5)n4)c3)cc(C(F)(F)F)c2)cn1 [AMN-107, nilotinib]
inhibition of Imatinib-resistant Bcr-Abl mutations [1]: inhibit most Imatinib-resistant Bcr-Abl mutations, except for T315I | potency of Bcr-Abl kinase inhibition relative to Imatinib [2]: 20 fold | inhibition of E255K mutant in a biochemical assay [3]: somewhat weak inhibition

Cc1ccc(NC(=O)c2ccc(CN3CCN(C)CC3)cc2)cc1Nc1nccc(-c2cccnc2)n1 [Imatinib]
degree of response at haematological and cytogenetic levels [4]: greater than 90%

CNC(=O)c1cc(Oc2ccc(NC(=O)Nc3cc(C(C)(C)C)nn3-c3cccc(CO)c3)c(Cl)c2)ccn1 [ANDREA-1, 4-{4-[({3-tert-Butyl-1-[3-(hydroxymethyl)phenyl]-1H-pyrazol-5-yl}carbamoyl)amino]-3-chlorophenoxy}-N-methylpyridine-2-carboxamide]
IC50 [5]: 4.96 nM | IC50 [6]: 71 nM | IC50 [7]: 8.38 nM | IC50 [8]: > 3000 nM | IC50 [9]: < 10000 nM | IC50 [10]: < 10000 nM | IC50 [11]: 2.81 nM | IC50 [12]: 0.448 nM | IC50 [13]: 53.9 nM | IC50 [14]: < 10000 nM
